Assay [1] can be described thus: Inhibition of potato 5-Lipoxygenase by enzyme immuno assay. Details: species or system Solanum tuberosum.
In assay [2] the target is T1, Prostaglandin G/H synthase 2 (Homo sapiens, UniProt P35354).
T1 sequence (P35354 whole entry): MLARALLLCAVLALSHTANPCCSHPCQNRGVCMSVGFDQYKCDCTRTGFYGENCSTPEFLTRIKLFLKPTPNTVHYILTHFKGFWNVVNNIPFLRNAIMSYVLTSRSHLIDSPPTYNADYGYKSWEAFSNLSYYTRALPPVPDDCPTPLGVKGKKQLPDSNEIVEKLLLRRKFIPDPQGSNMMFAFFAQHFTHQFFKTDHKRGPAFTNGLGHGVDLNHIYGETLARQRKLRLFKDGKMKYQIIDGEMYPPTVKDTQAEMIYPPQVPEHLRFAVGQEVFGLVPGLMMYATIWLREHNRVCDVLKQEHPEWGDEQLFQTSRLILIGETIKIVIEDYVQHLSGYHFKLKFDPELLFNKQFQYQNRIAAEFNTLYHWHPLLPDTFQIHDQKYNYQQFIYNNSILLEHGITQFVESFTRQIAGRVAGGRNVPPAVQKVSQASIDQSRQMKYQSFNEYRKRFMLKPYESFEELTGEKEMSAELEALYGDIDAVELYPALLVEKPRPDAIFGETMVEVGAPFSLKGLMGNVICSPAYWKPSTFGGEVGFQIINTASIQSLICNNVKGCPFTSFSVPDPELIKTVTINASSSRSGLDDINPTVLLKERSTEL
Put plainly: Inhibition of human recombinant COX2 by enzyme immuno assay.

In assay [3] the target is T2, Prostaglandin G/H synthase 1 (Ovis aries, UniProt P05979).
T2 sequence (P05979 whole entry): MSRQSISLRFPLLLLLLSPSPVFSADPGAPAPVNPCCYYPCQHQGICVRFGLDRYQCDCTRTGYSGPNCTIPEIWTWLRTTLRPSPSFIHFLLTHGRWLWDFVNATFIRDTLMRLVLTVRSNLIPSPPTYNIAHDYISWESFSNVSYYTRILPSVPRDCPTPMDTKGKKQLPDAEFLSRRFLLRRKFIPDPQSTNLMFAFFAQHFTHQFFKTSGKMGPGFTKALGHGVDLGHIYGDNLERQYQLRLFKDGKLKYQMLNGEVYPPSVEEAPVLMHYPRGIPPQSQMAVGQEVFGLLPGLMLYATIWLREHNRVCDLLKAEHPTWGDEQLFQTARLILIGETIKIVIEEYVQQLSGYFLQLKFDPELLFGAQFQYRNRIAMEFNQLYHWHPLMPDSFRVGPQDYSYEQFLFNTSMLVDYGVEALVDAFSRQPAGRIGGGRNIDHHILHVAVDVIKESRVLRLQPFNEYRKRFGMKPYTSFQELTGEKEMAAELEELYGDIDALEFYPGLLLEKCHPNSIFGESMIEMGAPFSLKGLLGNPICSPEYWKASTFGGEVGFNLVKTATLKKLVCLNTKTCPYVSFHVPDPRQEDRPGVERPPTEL
Description: Inhibition of ovine COX1 by enzyme immuno assay

For assay [4], the system named is Rattus norvegicus. Description: Antiinflammatory activity against carrageenan-induced paw edema in rat at 150 mg/kg, po relative to ibuprofen. It is filed as functional. For orientation: The carrageenan paw model is a standard test of acute inflammation.
Assay [5] deals with Rattus norvegicus. Description: Antiinflammatory activity against carrageenan-induced paw edema in rat at 150 mg/kg, ip. It is filed as functional. Particulars: route intraperitoneal.
Assay [6] concerns Rattus norvegicus. Put plainly: Antiinflammatory activity against carrageenan-induced paw edema in rat at 100 mg/kg, po. It is filed as functional.
The test system of assay [7] is Rattus norvegicus. Description: Antiinflammatory activity against carrageenan-induced paw edema in rat at 30 mg/kg, po. It is filed as functional.
The test system of assay [8] is Rattus norvegicus. Description: Antiinflammatory activity against carrageenan-induced paw edema in po dosed rat. The assay is classed as functional.

For orientation: IC50 means the concentration that gives 50% inhibition. Turning to `O=C(O)Cc1ccc(-c2ccn(C(F)F)c(=O)c2)cc1`, the values for the IC50 in assay [1], in assay [2] and in assay [3] were 3470 nM, 890 nM and 9.6 µM, respectively.

`CC(C(=O)O)c1ccccc1-c1ccn(C(F)F)c(=O)c1` (configuration not stated): the results for the IC50 in assay [1], in assay [2] and in assay [3] were 2000 nM, 2600 nM and over 100 µM, respectively.

For orientation: inhibition in vivo means how much of the control response was suppressed. A low value points to little suppression. With `O=C(O)Cc1ccccc1-c1ccn(C(F)F)c(=O)c1`, the IC50 worked out at 200 nM in assay [1], 860 nM in assay [2] and 5.5 µM in assay [3]. In addition, the inhibition in vivo at 150 mg/kg in the assay with Rattus norvegicus [4] was 19.9%; in the assay with Rattus norvegicus [5], 18.5%.

In the case of `CC(C(=O)O)c1ccc(-c2ccn(C(F)F)c(=O)c2)cc1` (configuration not stated), the IC50 in assay [1] was determined as 3000 nM; in assay [2] it was 2400 nM; in assay [3], 15.3 µM.

Turning to `O=C(O)Cc1cccc(-c2ccn(C(F)F)c(=O)c2)c1`, the IC50 is 370 nM in assay [1], 11100 nM in assay [2] and over 100 µM in assay [3]. The same compound returned an inhibition in vivo at 100 mg/kg in the assay with Rattus norvegicus [6] of 11.2%.

Regarding `O=C(O)/C=C/c1ccc(O)c(O)c1` [CAFFEIC ACID], inhibition in assay [1] was half-maximal at 4000 nM (IC50). For the same compound, the inhibition in vivo at 30 mg/kg in the assay with Rattus norvegicus [7] was 8.2%.

Usually ED50 stands for the midpoint of the dose-response relation. Low readings indicate an effect at a small dose, high ones a need for a large dose. The compound `CC(C)Cc1ccc(C(C)C(=O)O)cc1` (configuration not stated) [IBUPROFEN] registered an ED50 in the assay on Rattus norvegicus [8] of 67.4 mg/kg.

For `CC(Cc1ccc(O)c(O)c1)C(C)Cc1ccc(O)c(O)c1` (configuration not stated) [NORDIHYDROGUAIARETIC ACID], 30 mg/kg produced 15.1% inhibition in vivo with Rattus norvegicus [7].

The record behind these values is ChEMBL document CHEMBL1159082, “Phenylacetic acid regioisomers possessing a N-difluoromethyl-1,2-dihydropyrid-2-one pharmacophore: evaluation as dual inhibitors of cyclooxygenases and 5-lipoxygenase with anti-inflammatory activity” (Bioorg Med Chem Lett, 2010).
